According to patent publication US8173808B2, “Substituted naphthalenyl-pyrimidine compounds” (ArQule, Inc., priority 2009, dated 2012):

Tests used:
[1] = system: DLD-1; assay: MTS assay, DLD-1; assay type: cell-based; details: Homo sapiens, 72 hours, 1 Percent FBS
Protocol: (§1) Cells were maintained at 37° C., 5% CO2 in DMEM media supplemented with 1% fetal bovine serum, penicillin/streptomycin and fungizone (Invitrogen). Cells were seeded into 96-well tissue culture plates at 3000 per well and cultured at 37° C. for 18 hours. Test compounds were dissolved and diluted to 300× in DMSO then diluted 1:40 in DMEM. Cells were incubated with test compounds for 72 hours followed by incubation with tetrazolium compound (3-(4,5-dimethylthiazol-2-yl)-5-(3-carboxymethoxyphenyl)-2-(4-sulfophenyl)-2H-tetrazolium, inner salt; MTS) and the electron coupling reagent, phenazine methosulfate (PMS) for 4 hours. […] The ability of compounds to inhibit cell growth in this assay is correlated with the reduction of dehydrogenase enzyme activity found in metabolically active cells. The measurement of the absorbance of the formazan was assessed using a Victor (Perkin Elmer) microplate reader at 492 nm. The calculated IC50 value is the concentration of the test compound that causes a 50% decrease in the absorbance.

[2] = system: MDA-MB-231; assay: MTS assay, MDA-MB-231; assay type: cell-based; details: Homo sapiens, 72 hours, 1 Percent FBS
Protocol: as §1

In the case of `COc1ccc2cc(-c3ccnc(NCc4ccc(OC)c(OC)c4)n3)cc(N3CCOCC3)c2c1` [Compound 9, N-(3,4-dimethoxybenzyl)-4-(6-methoxy-4-morpholin-4-yl-2-naphthyl)pyrimidin-2-amine], the inhibition at 10 µM [1] is reported as 99% and the inhibition at 10 µM [2] is reported as 82%.

`COc1ccc2cc(-c3ccnc(NCCc4cccc(OC)c4OC)n3)cc(N3CCNCC3)c2c1` [Compound 129, N-[2-(2,3-dimethoxyphenyl)ethyl]-4-(6-methoxy-4-piperazin-1-yl-2-naphthyl)pyrimidin-2-amine] was tested, and the inhibition at 10 µM [1] was 97% and the inhibition at 10 µM [2] was 99%.

`CNc1nccc(-c2cc(NC(=O)CN3CCN(CC(=O)N(C)C)CC3)c3cc(OC)ccc3c2)n1` [Compound 52, 2-{4-[2-({7-methoxy-3-[2-(methylamino)pyrimidin-4-yl]-1-naphthyl}amino)-2-oxoethyl]piperazin-1-yl}-N,N-dimethylacetamide] was tested, and the inhibition at 10 µM [1] was 99% and the inhibition at 10 µM [2] was 96%.

For `COc1ccc2cc(-c3ccnc(NCc4ccc(OC)c(OC)c4)n3)cc(NC(=O)OC(C)(C)C)c2c1` [Compound 87, tert-butyl (3-{2-[(3,4-dimethoxybenzyl)amino]pyrimidin-4-yl}-7-methoxy-1-naphthyl)carbamate], the inhibition at 10 µM [1] was 45%.

Work on `COc1ccc(CCNc2nccc(-c3cc(N4CCNCC4)c4cc(OC)ccc4c3)n2)cc1` [Compound 134, N-[2-(4-methoxyphenyl)ethyl]-4-(6-methoxy-4-piperazin-1-yl-2-naphthyl)pyrimidin-2-amine] yielded an inhibition at 10 µM [1] of 97% and an inhibition at 10 µM [2] of 98%.

`COc1ccc2cc(-c3ccnc(NCCc4cccc(OC)c4OC)n3)cc(N3CCOCC3)c2c1` [Compound 17, N-[2-(2,3-dimethoxyphenyl)ethyl]-4-(6-methoxy-4-morpholin-4-yl-2-naphthyl)pyrimidin-2-amine] gave an inhibition at 10 µM [1] of 31%.

Work on `CNc1nccc(-c2cc(NC(=O)CN3CCN(CC4CCN(C)CC4)CC3)c3cc(OC)ccc3c2)n1` [Compound 41, N-{7-methoxy-3-[2-(methylamino)pyrimidin-4-yl]-1-naphthyl}-2-{4-[(l-methylpiperidin-4-yl)methyl]piperazin-1-yl}acetamide] yielded an inhibition at 10 µM [1] of 66% and an inhibition at 10 µM [2] of 71%.

For `CNc1nccc(-c2cc(NC3CCN(c4ncnc5nc[nH]c45)CC3)c3cc(OC)ccc3c2)n1` [Compound 157, 4-(6-methoxy-4-{[1-(9H-purin-6-yl)piperidin-4-yl]amino}-2-naphthyl)-N-methylpyrimidin-2-amine], the inhibition at 10 µM [1] was 46% and the inhibition at 10 µM [2] was 75%.

`CNc1nccc(-c2cc(NC3CCN(c4cc(Cl)ncn4)CC3)c3cc(OC)ccc3c2)n1` [Compound 159, 4-(4-{[1-(6-chloropyrimidin-4-yl)piperidin-4-yl]amino}-6-methoxy-2-naphthyl)-N-methylpyrimidin-2-amine] was tested, and the inhibition at 10 µM [1] was 93% and the inhibition at 10 µM [2] was 42%.

For `COc1ccc2cc(-c3ccnc(NCCc4ccccn4)n3)cc(N3CCOCC3)c2c1` [Compound 19, 4-(6-methoxy-4-morpholin-4-yl-2-naphthyl)-N-(2-pyridin-2-ylethyl)pyrimidin-2-amine], the inhibition at 10 µM [1] was 30%.

Work on `COc1ccc2cc(-c3ccnc(NCCc4cccnc4)n3)cc(N3CCNCC3)c2c1` [Compound 122, 4-(6-methoxy-4-piperazin-1-yl-2-naphthyl)-N-(2-pyridin-3-ylethyl)pyrimidin-2-amine] yielded an inhibition at 10 µM [1] of 94% and an inhibition at 10 µM [2] of 95%.

`CNc1nccc(-c2cc(NC(=O)CN3CCN(CCN4CCCC4)CC3)c3cc(OC)ccc3c2)n1` [Compound 64, N-{7-methoxy-3-[2-(methylamino)pyrimidin-4-yl]-1-naphthyl}-2-[4-(2-pyrrolidin-1-ylethyl)piperazin-1-yl]acetamide] was tested, and the inhibition at 10 µM [1] was 89% and the inhibition at 10 µM [2] was 71%.

For `COc1ccc2cc(-c3ccnc(NCc4ccccn4)n3)cc(N3CCOCC3)c2c1` [Compound 25, 4-(6-methoxy-4-morpholin-4-yl-2-naphthyl)-N-(pyridin-2-ylmethyl)pyrimidin-2-amine], the inhibition at 10 µM [1] was 82% and the inhibition at 10 µM [2] was 74%.

With `COc1ccc2cc(-c3ccnc(NCc4cccnc4)n3)cc(N3CCNCC3)c2c1` [Compound 130, 4-(6-methoxy-4-piperazin-1-yl-2-naphthyl)-N-(pyridin-3-ylmethyl)pyrimidin-2-amine] the inhibition at 10 µM [1] was 97% and the inhibition at 10 µM [2] was 76%.

In the case of `COc1ccc2cc(-c3ccnc(NC4CC(C)(C)N(C)C(C)(C)C4)n3)cc(N3CCOCC3)c2c1` [Compound 26, 4-(6-methoxy-4-morpholin-4-yl-2-naphthyl)-N-(1,2,2,6,6-pentamethylpiperidin-4-yl)pyrimidin-2-amine], the inhibition at 10 µM [1] is reported as 92% and the inhibition at 10 µM [2] is reported as 98%.

In the case of `COc1cc(CCNc2nccc(-c3cc(N4CCOCC4)c4cc(OC)ccc4c3)n2)cc(OC)c1` [Compound 27, N-[2-(3,5-dimethoxyphenyl)ethyl]-4-(6-methoxy-4-morpholin-4-yl-2-naphthyl)pyrimidin-2-amine], the inhibition at 10 µM [1] is reported as 87%.

For `COc1ccc2cc(-c3ccnc(NCc4ccccc4C)n3)cc(N3CCOCC3)c2c1` [Compound 20, 4-(6-methoxy-4-morpholin-4-yl-2-naphthyl)-N-(2-methylbenzyl)pyrimidin-2-amine], the inhibition at 10 µM [1] was 66%.

`COc1ccc2cc(-c3ccnc(NCc4ccccn4)n3)cc(NC(=O)OC(C)(C)C)c2c1` [Compound 102, tert-butyl (7-methoxy-3-{2-[(pyridin-2-ylmethyl)amino]pyrimidin-4-yl}-1-naphthyl)carbamate] gave an inhibition at 10 µM [1] of 43%.

In the case of `CNc1nccc(-c2cc(NC(=O)CNc3ccncc3)c3cc(OC)ccc3c2)n1` [Compound 56, N-{7-methoxy-3-[2-(methylamino)pyrimidin-4-yl]-1-naphthyl}-N~2~-pyridin-4-ylglycinamide], the inhibition at 10 µM [2] is reported as 50%.

`COc1ccc2cc(-c3ccnc(NCCc4ccc(OC)c(OC)c4)n3)cc(NC(=O)OC(C)(C)C)c2c1` [Compound 95, tert-butyl [3-(2-{[2-(3,4-dimethoxyphenyl)ethyl]amino}pyrimidin-4-yl)-7-methoxy-1-naphthyl]carbamate] was tested, and the inhibition at 10 µM [2] was 39%.

`CNc1nccc(-c2cc(NC3CCN(c4ncnc5scc(C)c45)CC3)c3cc(OC)ccc3c2)n1` [Compound 160, 4-(6-methoxy-4-{[1-(5-methylthieno[2,3-d]pyrimidin-4-yl)piperidin-4-yl]amino}-2-naphthyl)-N-methylpyrimidin-2-amine] showed an inhibition at 10 µM [1] of 50%.

Compound `CNc1nccc(-c2cc(NC(=O)CNCCCN3CCN(C)CC3)c3cc(OC)ccc3c2)n1` [Compound 69, N-{7-methoxy-3-[2-(methylamino)pyrimidin-4-yl]-1-naphthyl}-N~2~-[3-(4-methylpiperazin-1-yl)propyl]glycinamide] has an inhibition at 10 µM [2] of 40%.

Compound `CNc1nccc(-c2cc(NC(=O)CN3CCN(c4ccc(C(F)(F)F)cn4)CC3)c3cc(OC)ccc3c2)n1` [Compound 55, N-{7-methoxy-3-[2-(methylamino)pyrimidin-4-yl]-1-naphthyl}-2-{4-[5-(trifluoromethyl)pyridin-2-yl]piperazin-1-yl}acetamide] has an inhibition at 10 µM [2] of 65%.

Work on `COc1ccc2cc(-c3ccnc(NCCN(C)C)n3)cc(N3CCOCC3)c2c1` [Compound 8, N′-[4-(6-methoxy-4-morpholin-4-yl-2-naphthyl)pyrimidin-2-yl]-N,N-dimethylethane-1,2-diamine] yielded an inhibition at 10 µM [2] of 45%.

Work on `CNc1nccc(-c2cc(NC3CCN(c4cc(N)ncn4)CC3)c3cc(OC)ccc3c2)n1` [Compound 156, 4-(4-{[1-(6-aminopyrimidin-4-yl)piperidin-4-yl]amino}-6-methoxy-2-naphthyl)-N-methylpyrimidin-2-amine] yielded an inhibition at 10 µM [1] of 34%.

Compound `CNc1nccc(-c2cc(NC3CCN(c4cc(Cl)nc(C)n4)CC3)c3cc(OC)ccc3c2)n1` [Compound 162, 4-(4-{[1-(6-chloro-2-methylpyrimidin-4-yl)piperidin-4-yl]amino}-6-methoxy-2-naphthyl)-N-methylpyrimidin-2-amine] has an inhibition at 10 µM [1] of 42%.

`COc1ccc2cc(-c3ccnc(NCc4cccc(C(F)(F)F)c4)n3)cc(NC(=O)OC(C)(C)C)c2c1` [Compound 90, tert-butyl [7-methoxy-3-(2-{[3-(trifluoromethyl)benzyl]amino}pyrimidin-4-yl)-1-naphthyl]carbamate] showed an inhibition at 10 µM [2] of 43%.

For `CNc1nccc(-c2cc(NC(=O)CN3CCN(CCCN4CCOCC4)CC3)c3cc(OC)ccc3c2)n1` [Compound 77, N-{7-methoxy-3-[2-(methylamino)pyrimidin-4-yl]-1-naphthyl}-2-[4-(3-morpholin-4-ylpropyl)piperazin-1-yl]acetamide], the inhibition at 10 µM [2] was 41%.

For `CNc1nccc(-c2cc(NC(=O)CN3CCN(Cc4ccc(Cl)cc4)CC3)c3cc(OC)ccc3c2)n1` [Compound 66, 2-[4-(4-chlorobenzyl)piperazin-1-yl]-N-{7-methoxy-3-[2-(methylamino)pyrimidin-4-yl]-1-naphthyl}acetamide], the inhibition at 10 µM [1] was 69%.

`COc1ccc2cc(-c3ccnc(NCCc4ccccc4OC)n3)cc(N3CCOCC3)c2c1` [Compound 15, 4-(6-methoxy-4-morpholin-4-yl-2-naphthyl)-N-[2-(2-methoxyphenyl)ethyl]pyrimidin-2-amine] gave an inhibition at 10 µM [1] of 90%.

`COc1ccc2cc(-c3ccnc(NCc4cccc(C(F)(F)F)c4)n3)cc(N3CCOCC3)c2c1` [Compound 13, 4-(6-methoxy-4-morpholin-4-yl-2-naphthyl)-N-[3-(trifluoromethyl)benzyl]pyrimidin-2-amine] was tested, and the inhibition at 10 µM [1] was 98%.

`CNc1nccc(-c2cc(NC(=O)CN3CCN(c4ccncc4)CC3)c3cc(OC)ccc3c2)n1` [Compound 70, N-{7-methoxy-3-[2-(methylamino)pyrimidin-4-yl]-1-naphthyl}-2-(4-pyridin-4-ylpiperazin-1-yl)acetamide] showed an inhibition at 10 µM [2] of 37%.
